According to patent publication US20150374676A1, “HELICASE-PRIMASE INHIBITORS FOR USE IN A METHOD OF TREATING ALZHEIMER'S DISEASE” (AICURIS GMBH & CO. KG, priority 2013, published 2015):
Read-outs that look alike come from different tables or passages of the source.

Key:
[1] = Multiple-dose escalation, steady state pharmacokinetics in healthy volunteers; assay type: in vivo, human; details: steady state after once daily single doses for 21 days
[2] = as above; assay type: in vivo, human; details: for Ctrough: free base in plasma; for AUC / Cmax: human, plasma, oral
Excerpt: For three doses of the mono mesylate monohydrate salt of N-[5-(aminosulfonyl)-4-methyl-1,3-thiazol-2-yl]-N-methyl-2-[4-(2-pyridinyl)phenyl]acetamide in formulations in accordance with table a, wherein the particle size distribution is preferably defined by d(0.1) from 2 to 100 μm, d(0.5) from 30 to 210 μm and d(0.9) from 70 to 400 μm with a specific surface area of the particles less than 1.0 m^2/g, and more preferably defined by d(0.1) from 10 to 75 μm, d(0.5) from 100 to 175 μm, d(0.9) from 200 to 350 μm with a specific surface area of the particles less than 0.3 m^2/g, investigated (5, 25, and 100 mg as free base equivalent; once per day oral administration, […]), the individual concentration-time curves of the free base N-[5-(aminosulfonyl)-4-methyl-1,3-thiazol-2-yl]Nmethyl-2-[4-(2-pyridinyl)phenyl]acetamide at day 1 (after the first administration) were very similar in their general shape and slope to those profiles obtained in the single dose escalation trial (see Example a).
At steady state, there was a low inter-individual variability of minimal or “trough” concentrations with CVs (coefficient of variations) between 16.7 and 21.7% (day 21). For all doses, the individual and mean concentration-time curves of the free base of N-[5-(aminosulfonyl)-4-methyl-1,3-thiazol-2-yl]-N-methyl-2-[4-(2-pyridinyl)phenyl]acet-amide at day 21 were very similar in their shape and slope to those profiles obtained at day 1.
Table c: Steady state pharmacokinetic parameters of the free base N-[5-(aminosulfonyl)-4-methyl-1,3-thiazol-2-yl]-N-methyl-2-[4-(2-pyridinyl)phenyl]acetamide at day 21 after daily administrations of 5, 25, or 100 mg as free base equivalent of the mono mesylate monohydrate salt of N-[5-(aminosulfonyl)-4-methyl-1,3-thiazol-2-yl]-N-methyl-2-[4-(2-pyridinyl)phenyl]acetamide in formulations in accordance with table a, wherein the particle size distribution is preferably defined by d(0.1) from 2 to 100 μm, d(0.5) from 30 to 210 μm and d(0.9) from 70 to 400 μm with a specific surface area of the particles less than 1.0 m^2/g, and more preferably defined by d(0.1) from 10 to 75 μm, d(0.5) from 100 to 175 μm, d(0.9) from 200 to 350 μm with a specific surface area of the particles less than 0.3 m^2/g, to healthy volunteers (n=12 per dose).

[3] = effect of food intake on pharmacokinetics; assay type: in vivo; details: human blood plasma
Excerpt: Further, in accordance with the invention the person skilled in the art understands that food intake prior to administration of the crystalline mono mesylate monohydrate salt of N-[5-(aminosulfonyl)-4-methyl-1,3-thiazol-2-yl]-N-methyl-2-[4-(2-pyridinyl)phenyl]-acetamide of a subject may influence positively the in vivo PK/PD profile of the resultant free base of N-[5-(aminosulfonyl)-4-methyl-1,3-thiazol-2-yl]-N-methyl-2-[4-(2-pyridinyl)phenyl]-acetamide. Thus, in accordance with the invention a decreased absorption rate and a delayed tmax of the resultant free base of N-[5-(aminosulfonyl)-4-methyl-1,3-thiazol-2-yl]-N-methyl-2-[4-(2-pyridinyl)phenyl]-acetamide may be expected in […] subjects after administration of crystalline mono mesylate monohydrate salt of N-[5-(aminosulfonyl)-4-methyl-1,3-thiazol-2-yl]-N-methyl-2-[4-(2-pyridinyl)phenyl]-acetamide.

[4] = fraction unbound in cell culture medium; assay type: in vitro ADME
[5] = 5 mg free base equivalent once daily, day 21 steady state, healthy volunteers n=12
[6] = 25 mg free base equivalent once daily, day 21 steady state, healthy volunteers n=12
[7] = 100 mg free base equivalent once daily, day 21 steady state, healthy volunteers n=12

Q: Which t1/2z on average ([1]; 100 mg dosage as free base equivalent) does the source give for `CS(=O)(=O)O.Cc1nc(N(C)C(=O)Cc2ccc(-c3ccccn3)cc2)sc1S(N)(=O)=O` [mono mesylate monohydrate salt, N-[5-(aminosulfonyl)-4-methyl-1,3-thiazol-2-yl]-N-methyl-2-[4-(2-pyridinyl)-phenyl]acetamide mono methanesulfonic acid monohydrate] here?
A: Its t1/2z on average is 60 ± 4 h.

Q: And the AUC ([1]; human, plasma, oral, 25 mg dosage as free base equivalent)?
A: The AUC was 23400 ± 3020 ng·h/mL.

Q: What about the Cmax ([1]; human, plasma, oral, 25 mg dosage as free base equivalent, read-out: mean maximum blood plasma concentration at steady state (mean Cmax,ss) of the free base) of the same compound?
A: The Cmax was 1360 ± 167 ng/mL.

Q: And the AUC ([1]; human, plasma, oral, 100 mg dosage as free base equivalent)?
A: Its AUC is 109000 ± 28600 ng·h/mL.

Q: What about the Cav [2, 5] of the same compound?
A: Its Cav is 213 ng/mL.

Q: And the t1/2z [2, 5]?
A: Its t1/2z is 82.6 h.

Q: What about the Ctrough [2, 5] of the same compound?
A: The Ctrough was 187 ng/mL.

Q: What about the t1/2z on average ([2]; 25 mg dosage as free base equivalent, steady state after once daily single doses for 21 days) of the same compound?
A: Its t1/2z on average is 69 ± 6 h.

Q: And the Cav [2, 6]?
A: Its Cav is 977 ng/mL.

Q: What about the “Cmax,ss” value [2, 6] of the same compound?
A: The value was 1358 ng/mL.

Q: And the t1/2z [2, 6]?
A: The t1/2z was 68.6 h.

Q: And the AUCτ ([2]; 25 mg free base equivalent once daily, day 21 steady state, healthy volunteers n=12, dosing interval 24 hours)?
A: The AUCτ was 23430 ng·h/mL.

Q: And the Ctrough [2, 6]?
A: Its Ctrough is 832 ng/mL.

Q: And the Cav [2, 7]?
A: The Cav was 4540 ng/mL.

Q: What about the “Cmax,ss” value [2, 7] of the same compound?
A: Its value is 6358 ng/mL.

Q: What about the t1/2z [2, 7] of the same compound?
A: The t1/2z was 59.8 h.

Q: And the AUCτ ([2]; 100 mg free base equivalent once daily, day 21 steady state, healthy volunteers n=12, dosing interval 24 hours)?
A: Its AUCτ is 108800 ng·h/mL.

Q: And the Ctrough [2, 7]?
A: The Ctrough was 3743 ng/mL.

Q: What about the t1/2z on average ([2]; 200 mg dosage as free base equivalent, steady state after once daily single doses for 21 days) of the same compound?
A: Its t1/2z on average is 57.19 ± 5.451 h.

Q: And the “dose dependence of AUC0-24h and Cmax at day 1” value ([2]; 5, 25, 100 mg free base equivalent, after the first administration)?
A: The value was “dose-proportional increases”.

Q: What about the “dose dependence of exposure at steady state (Ctrough, AUCτ, Cmax,ss, Cav)” value ([2]; 5, 25, 100 mg once daily) of the same compound?
A: The value was “dose-proportional increase”.

Q: And the “accumulation ratio R for AUC and Cmax” value ([2]; all doses applied (5, 25, 100 mg once daily))?
A: Its value is about 5.

Q: And the “apparent total clearance (CL/F)” value ([2]; all doses investigated (5, 25, 100 mg once daily), steady state)?
A: Its value is 0.99 to 1.08 L/h.

Q: What about the AUC ([2]; 200 mg, 100 mg dosage as free base equivalent, steady state after once daily single doses for 21 days, read-out: AUCτ,ss) of the same compound?
A: Its AUC is 168000 ± 38000 ng·h/mL.

Q: And the AUC ([2]; 5 mg free base equivalent once daily, day 21 steady state, healthy volunteers n=12, dosing interval 24 hours, read-out: AUCτ)?
A: The AUC was 5090 ng·h/mL.

Q: And the Cmax ([2]; 5 mg free base equivalent once daily, day 21 steady state, healthy volunteers n=12, read-out: Cmax,ss)?
A: Its Cmax is 301 ng/mL.

Q: What about the Cmax ([2]; 100 mg dosage as free base equivalent, steady state after once daily single doses for 21 days, read-out: mean maximum blood plasma concentration at steady state (mean Cmax,ss) of the free base) of the same compound?
A: The Cmax was 6360 ± 1700 ng/mL.

Q: What about the Cmax ([2]; 200 mg dosage as free base equivalent, steady state after once daily single doses for 21 days, read-out: mean maximum blood plasma concentration at steady state (mean Cmax,ss) of the free base) of the same compound?
A: Its Cmax is 9990 ± 2610 ng/mL.

Q: What about the “t1/2z with food intake prior to administration” value [3] of the same compound?
A: Its value is “remains constant”.

Q: What about the “increase in AUC with food intake prior to administration” value ([3]; HPLC, worded 'may lead to') of the same compound?
A: Its value is “at least 10%”.

Q: And the “increase in mean Cmax with food intake prior to administration” value ([3]; HPLC, worded 'may lead to')?
A: Its value is “at least 25%”.

Q: And the fraction unbound [4]?
A: The fraction unbound was 0.71.
